# Laboratory results from patent publication US20260256792A1, “TREATMENT OF CHRONIC SPONTANEOUS URTICARIA BY ADMINISTERING (R)-2-[3-[4-AMINO-3-(2-FLUORO-4-PHENOXY-PHENYL)PYRAZOLO[3,4-D]PYRIMIDIN-1-YL]PIPERIDINE-1-CARBONYL]-4-METHYL-4-[4-(OXETAN-3-YL)PIPERAZIN-1-YL]PENT-2-ENENITRILE” (priority 2023, published 2026).
# Test system: moderate-to-severe chronic spontaneous urticaria (CSU)
# Assay: Phase 2 CSU study: hives severity score over 7 days (HSS7)
# Assay type: in vivo, human
# Set-up: key to HSS7 Change from baseline, Median / HSS7, Median / HSS7, Max / HSS7 Change from baseline, Q1 / HSS7 Change from baseline, Q3 / HSS7 Change from baseline, Max: 7-day sum of daily hive scores, each 0 = none to 3 = >50 hives
# Description: The study comprises a 12 week, randomized, double-blind, placebo-controlled, multi-center, dose-ranging efficacy and safety phase, followed by a 40 week open label extension (OLE) phase (see FIG. 1).
# The study consists of three phases and an optional OLE phase.
# The UAS is a validated PRO measure. The daily UAS is the sum of the daily Hive Severity Score (HSS, ranging from 0=None to 3=more than 50 hives) and the daily Itch Severity Score (ISS, ranging from 0=None to 3=intense), the 2 key urticaria signs and symptoms which are wheals and itch. The daily UAS scores range from 0 to 6 point/day. Daily UAS scores are summed over 7-day period to create the UAS7, ranging from 0 to 42, and are composed of the HSS7 and ISS7 components. […] Patients were to complete the UAS using the e-diary. The e-diary was to be used once daily on the same time of each day recording of participant's answers to the urticaria activity score over 7 days (UAS7) questionnaire. For participants who entered the OLE phase, their answers to the UAS7 questionnaire were also to be collected from Week 20 to Week24 and from Week 48 to Week 52.
# The following secondary endpoints were to be analyzed using the same approach as for the primary endpoint: • Change from baseline in UAS7 at Week 4 • Change from baseline in UAS7 at Week 12 (for US and US reference countries) • Change from baseline in ISS7 at Week 12 (except US and US reference countries) • Change from baseline in HSS7 at Week 12
# [1] = 400 mg BID, Week 11, ITT Population
# [2] = 400 mg BID, Week 12, ITT population
# [3] = 400 mg BID, Week 12, Omalizumab-Naïve Population
# [4] = 400 mg QPM, Omalizumab-Naïve Population, last block under Week 12, double-blind period, WOCF imputation
# [5] = 400 mg QPM, Week 1, ITT Population
# [6] = 400 mg QPM, Week 1, Omalizumab-Naïve Population
# [7] = 400 mg QPM, Week 2, ITT Population
# [8] = 400 mg QPM, Week 2, Omalizumab-Naïve Population
# [9] = 400 mg QPM, Week 3, ITT Population
# [10] = 400 mg QPM, Week 3, Omalizumab-Naïve Population
# [11] = 400 mg QPM, Week 4, ITT population
# [12] = 400 mg QPM, Week 4, Omalizumab-Naïve Population
# [13] = 400 mg QPM, Week 5, ITT Population
# [14] = 400 mg QPM, Week 5, Omalizumab-Naïve Population
# [15] = 400 mg QPM, Week 6, ITT Population
# [16] = 400 mg QPM, Week 6, Omalizumab-Naïve Population
# [17] = 400 mg QPM, Week 7, ITT Population
# [18] = 400 mg QPM, Week 7, Omalizumab-Naïve Population
# [19] = 400 mg QPM, Week 8, ITT population
# [20] = 400 mg QPM, Week 8, Omalizumab-Naïve Population
# [21] = 400 mg QPM, Week 9, ITT Population
structure (smiles),measurement,setting,value
"CC(C)(C=C(C#N)C(=O)N1CCC[C@@H](n2nc(-c3ccc(Oc4ccccc4)cc3F)c3c(N)ncnc32)C1)N1CCN(C2COC2)CC1 [rilzabrutinib, (R)-2-[3-[4-amino-3-(2-fluoro-4-phenoxy-phenyl)pyrazolo[3,4-d]pyrimidin-1-yl]piperidine-1-carbonyl]-4-methyl-4-[4-(oxetan-3-yl)piperazin-1-yl]pent-2-enenitrile]",HSS7 % Change from baseline LS Mean (SE),[1],−49.14 (7.06) %
same,HSS7 Change difference for rilzabrutinib vs.placebo LS Mean (95% CI),[1],"−2.46 (−5.05, 0.13)"
same,HSS7 Change from baseline LS Mean (SE),[1],−7.01 (0.99)
same,HSS7 Postbaseline Mean (SD),[1],6.79 (7.06)
same,HSS7 Postbaseline Mean (SD),"400 mg BID, Week 11, Omalizumab-Naïve Population",7.13 (7.07)
same,HSS7 Postbaseline Mean (SD),"400 mg BID, Week 11, Omalizumab-Naïve Population with Outlier Removed from Analysis",7.13 (7.07)
same,HSS7 % Change difference for rilzabrutinib vs.placebo LS Mean (95% CI),[2],−19.13 %
same,HSS7 % Change from baseline LS Mean (SE),[2],−46.86 (7.34) %
same,HSS7 Change difference for rilzabrutinib vs.placebo LS Mean (95% CI),[2],"−1.89 (−4.58, 0.80)"
same,HSS7 Change from baseline LS Mean (SE),[2],−6.78 (1.02)
same,HSS7 Postbaseline Mean (SD),[2],7.08 (7.32)
same,HSS7 Change difference for rilzabrutinib vs.placebo LS Mean (95% CI),[3],"−2.12 (−4.97, 0.73)"
same,HSS7 Change from baseline LS Mean (SE),[3],−6.52 (1.07)
same,HSS7 Postbaseline Mean (SD),[3],7.52 (7.21)
same,HSS7 Postbaseline Mean (SD),"400 mg BID, Week 12, Omalizumab-Naïve Population with Outlier Removed from Analysis",7.52 (7.21)
same,"HSS7, Max",[4],21.0
same,"HSS7, Min",[4],0.0
same,"HSS7 Change from baseline, Max",[4],1.5
same,"HSS7 Change from baseline, Mean (SD)",[4],−9.87 (8.34)
same,"HSS7 Change from baseline, Median",[4],−12.00
same,"HSS7 Change from baseline, Min",[4],−19.6
same,"HSS7 Change from baseline, Q1",[4],−18.00
same,"HSS7 Change from baseline, Q3",[4],0.00
same,"HSS7 Percent change from baseline, Max",[4],9.4%
same,"HSS7 Percent change from baseline, Mean (SD)",[4],−64.85 (48.75) percent
same,"HSS7 Percent change from baseline, Median",[4],−93.33%
same,"HSS7 Percent change from baseline, Q1",[4],−100.00%
same,"HSS7 Percent change from baseline, Q3",[4],0.00%
same,HSS7 % Change difference for rilzabrutinib vs.placebo LS Mean (95% CI),[5],−16.53 %
same,HSS7 % Change from baseline LS Mean (SE),[5],−25.22 (5.61) %
same,HSS7 Change difference for rilzabrutinib vs.placebo LS Mean (95% CI),[5],"−2.14 (−4.59, 0.31)"
same,HSS7 Change from baseline LS Mean (SE),[5],−3.98 (0.76)
same,HSS7 Postbaseline Mean (SD),[5],10.76 (4.83)
same,HSS7 % Change difference for rilzabrutinib vs.placebo LS Mean (95% CI),[6],−17.05 %
same,HSS7 % Change from baseline LS Mean (SE),[6],−24.49 (5.76) %
same,HSS7 Change difference for rilzabrutinib vs.placebo LS Mean (95% CI),[6],"−2.16 (−4.69, 0.37)"
same,HSS7 Change from baseline LS Mean (SE),[6],−3.79 (0.77)
same,HSS7 Postbaseline Mean (SD),[6],10.73 (4.90)
same,HSS7 Postbaseline Mean (SD),"400 mg QPM, Week 1, Omalizumab-Naïve Population with Outlier Removed from Analysis",10.73 (4.90)
same,HSS7 % Change difference for rilzabrutinib vs.placebo LS Mean (95% CI),[7],"−7.67 (−23.03, 7.68) %"
same,HSS7 % Change from baseline LS Mean (SE),[7],−24.23 (5.75) %
same,HSS7 Change difference for rilzabrutinib vs.placebo LS Mean (95% CI),[7],"−0.95 (−3.07, 1.17)"
same,HSS7 Change from baseline LS Mean (SE),[7],−3.87 (0.80)
same,HSS7 Postbaseline Mean (SD),[7],10.96 (4.91)
same,HSS7 % Change difference for rilzabrutinib vs.placebo LS Mean (95% CI),[8],"−8.35 (−24.24, 7.54) %"
same,HSS7 % Change from baseline LS Mean (SE),[8],−23.62 (5.84) %
same,HSS7 Postbaseline Mean (SD),[8],10.90 (4.97)
same,HSS7 Postbaseline Mean (SD),"400 mg QPM, Week 2, Omalizumab-Naïve Population with Outlier Removed from Analysis",10.90 (4.97)
same,HSS7 % Change difference for rilzabrutinib vs.placebo LS Mean (95% CI),[9],"−9.55 (−25.43, 6.33) %"
same,HSS7 % Change from baseline LS Mean (SE),[9],−28.70 (5.96) %
same,HSS7 Change difference for rilzabrutinib vs.placebo LS Mean (95% CI),[9],"−0.94 (−3.15, 1.28)"
same,HSS7 Change from baseline LS Mean (SE),[9],−4.44 (0.83)
same,HSS7 Postbaseline Mean (SD),[9],10.40 (4.90)
same,HSS7 % Change difference for rilzabrutinib vs.placebo LS Mean (95% CI),[10],−10.40 %
same,HSS7 % Change from baseline LS Mean (SE),[10],−28.10 (6.12) %
same,HSS7 Postbaseline Mean (SD),[10],10.41 (4.97)
same,HSS7 Postbaseline Mean (SD),"400 mg QPM, Week 3, Omalizumab-Naïve Population with Outlier Removed from Analysis",10.41 (4.97)
same,HSS7 % Change difference for rilzabrutinib vs.placebo LS Mean (95% CI),[11],"−7.88 (−24.05, 8.29) %"
same,HSS7 % Change from baseline LS Mean (SE),[11],−26.58 (6.02) %
same,HSS7 Change difference for rilzabrutinib vs.placebo LS Mean (95% CI),[11],"−0.78 (−3.03, 1.46)"
same,HSS7 Change from baseline LS Mean (SE),[11],−4.23 (0.84)
same,HSS7 % Change difference for rilzabrutinib vs.placebo LS Mean (95% CI),[12],−10.20 %
same,HSS7 % Change from baseline LS Mean (SE),[12],−26.07 (6.19) %
same,HSS7 % Change difference for rilzabrutinib vs.placebo LS Mean (95% CI),[13],−2.80 %
same,HSS7 % Change from baseline LS Mean (SE),[13],−31.95 (5.91) %
same,HSS7 Change difference for rilzabrutinib vs.placebo LS Mean (95% CI),[13],"−0.33 (−2.64, 1.97)"
same,HSS7 Change from baseline LS Mean (SE),[13],−4.97 (0.86)
same,HSS7 Postbaseline Mean (SD),[13],9.59 (5.07)
same,HSS7 % Change difference for rilzabrutinib vs.placebo LS Mean (95% CI),[14],−0.56 %
same,HSS7 % Change from baseline LS Mean (SE),[14],−31.12 (6.01) %
same,HSS7 Postbaseline Mean (SD),[14],9.63 (5.13)
same,HSS7 Postbaseline Mean (SD),"400 mg QPM, Week 5, Omalizumab-Naïve Population with Outlier Removed from Analysis",9.63 (5.13)
same,HSS7 % Change difference for rilzabrutinib vs.placebo LS Mean (95% CI),[15],−7.12 %
same,HSS7 % Change from baseline LS Mean (SE),[15],−31.19 (6.73) %
same,HSS7 Change difference for rilzabrutinib vs.placebo LS Mean (95% CI),[15],"−0.50 (−3.00, 2.00)"
same,HSS7 Change from baseline LS Mean (SE),[15],−4.76 (0.93)
same,HSS7 Postbaseline Mean (SD),[15],9.89 (5.69)
same,HSS7 % Change difference for rilzabrutinib vs.placebo LS Mean (95% CI),[16],−6.27 %
same,HSS7 % Change from baseline LS Mean (SE),[16],−30.30 (6.90) %
same,HSS7 Postbaseline Mean (SD),[16],9.94 (5.76)
same,HSS7 Postbaseline Mean (SD),"400 mg QPM, Week 6, Omalizumab-Naïve Population with Outlier Removed from Analysis",9.94 (5.76)
same,HSS7 % Change difference for rilzabrutinib vs.placebo LS Mean (95% CI),[17],−5.92 %
same,HSS7 % Change from baseline LS Mean (SE),[17],−29.88 (6.15) %
same,HSS7 Change difference for rilzabrutinib vs.placebo LS Mean (95% CI),[17],"−0.53 (−2.87, 1.81)"
same,HSS7 Change from baseline LS Mean (SE),[17],−4.61 (0.88)
same,HSS7 Postbaseline Mean (SD),[17],10.38 (5.19)
same,HSS7 % Change difference for rilzabrutinib vs.placebo LS Mean (95% CI),[18],−3.82 %
same,HSS7 % Change from baseline LS Mean (SE),[18],−29.51 (6.35) %
same,HSS7 Postbaseline Mean (SD),[18],10.43 (5.27)
same,HSS7 Postbaseline Mean (SD),"400 mg QPM, Week 7, Omalizumab-Naïve Population with Outlier Removed from Analysis",10.43 (5.27)
same,HSS7 % Change difference for rilzabrutinib vs.placebo LS Mean (95% CI),[19],−1.88 %
same,HSS7 % Change from baseline LS Mean (SE),[19],−30.95 (6.43) %
same,HSS7 Change difference for rilzabrutinib vs.placebo LS Mean (95% CI),[19],"0.11 (−2.37, 2.59)"
same,HSS7 Change from baseline LS Mean (SE),[19],−4.64 (0.93)
same,HSS7 Postbaseline Mean (SD),[19],10.43 (5.63)
same,HSS7 % Change difference for rilzabrutinib vs.placebo LS Mean (95% CI),[20],−2.41 %
same,HSS7 % Change from baseline LS Mean (SE),[20],−30.42 (6.75) %
same,HSS7 % Change difference for rilzabrutinib vs.placebo LS Mean (95% CI),[21],−10.31 %
same,HSS7 % Change from baseline LS Mean (SE),[21],−34.23 (6.69) %
same,HSS7 Change difference for rilzabrutinib vs.placebo LS Mean (95% CI),[21],"−0.94 (−3.47, 1.59)"
same,HSS7 Change from baseline LS Mean (SE),[21],−5.06 (0.95)
same,HSS7 Postbaseline Mean (SD),[21],9.77 (5.51)
same,HSS7 Postbaseline Mean (SD),"400 mg QPM, Week 9, Omalizumab-Naïve Population",9.82 (5.59)
same,HSS7 Postbaseline Mean (SD),"400 mg QPM, Week 9, Omalizumab-Naïve Population with Outlier Removed from Analysis",9.82 (5.59)
